Reference: patent publication US9783530B2, “Factor Xla inhibitors” (Merck Sharp & Dohme Corp., priority 2014, dated 2017)

Key:
[1] = target: purified human Factor XIa (Homo sapiens (Human), UniProt P03951); experiment: Factor XIa Assay; assay type: biochemical; conditions: purified human Factor XIa 40 pM, substrate Z-Gly-Pro-Arg-AFC, pH 7.4; read-out: FXIa IC50
Method: The effectiveness of a compound of the present invention as an inhibitor of Coagulation Factor XIa can be determined using a relevant purified serine protease, and an appropriate synthetic substrate. The rate of hydrolysis of the chromogenic or fluorogenic substrate by the relevant serine protease was measured both in the absence and presence of compounds of the present invention. Assays were conducted at room temperature or at 37° C. […] A decrease in the rate of fluorescence change in the presence of inhibitor is indicative of enzyme inhibition. Such methods are known to one skilled in the art. […]
Factor XIa determinations were made in 50 mM HEPES buffer at pH 7.4 containing 150 mM NaCl, 5 mM CaCl2, and 0.1% PEG 8000 (polyethylene glycol; JT Baker or Fisher Scientific). Determinations were made using purified human Factor XIa at a final concentration of 40 pM (Sekisui Diagnostics) and he synthetic substrate, Z-Gly-Pro-Arg-AFC, TFA salt (Sigma #C0980) at a concentration of 100 µM.
Activity assays were performed by diluting a stock solution of substrate at least tenfold to a final concentration ≦0.1 Km into a solution containing enzyme or enzyme equilibrated with inhibitor. Times required to achieve equilibration between enzyme and inhibitor were determined in control experiments. Initial velocities of product formation in the absence (Vo) or presence of inhibitor (Vi) were measured. Assuming competitive inhibition, and that unity is negligible compared Km/[S], [I]/e, and [I]/e (where [S], [I], and e respectively represent the total concentrations, of substrate, inhibitor and enzyme), the equilibrium constant (Ki) for dissociation of the inhibitor from the enzyme can be obtained from the dependence of Vo/Vi on [I] shown in the following equation.

[2] = target: purified Human plasma kallikrein (Homo sapiens (Human), UniProt P03952); experiment: Kallikrein Assay; assay type: biochemical; conditions: purified Human plasma kallikrein 0.5 nM, substrate Acetyl-K-P-R-AFC, pH 7.4; read-out: P. KLK IC50
Method: The effectiveness of a compound of the present invention as an inhibitor of Kallikrein can be determined using a relevant purified serine protease, and an appropriate synthetic substrate. The rate of hydrolysis of the chromogenic or fluorogenic substrate by the relevant serine protease was measured both in the absence and presence of compounds of the present invention. Assays were conducted at room temperature or at 37° C. […] A decrease in the rate of fluorescence change in the presence of inhibitor is indicative of enzyme inhibition. Such methods are known to one skilled in the art. The results of this assay are expressed as the inhibitory constant, Ki.
Kallikrein determinations were made in 50 mM HEPES buffer at pH 7.4 containing 150 mM NaCl, 5 mM CaCl2, and 0.1% PEG 8000 (polyethylene glycol; Fisher Scientific). Determinations were made using purified Human plasma kallikrein at a final concentration of 0.5 nM (Enzyme Research Laboratories) and the synthetic substrate, Acetyl-K-P-R-AFC (Sigma # C6608) at a concentration of […].
Activity assays were performed by diluting a stock solution of substrate at least tenfold to a final concentration ≦0.2 Km into a solution containing enzyme or enzyme equilibrated with inhibitor. Times required to achieve equilibration between enzyme and inhibitor were determined in control experiments. The reactions were performed under linear progress curve conditions and fluorescence increase measured at 405 Ex/510 Em nm. Values were converted to percent inhibition of the control reaction (after subtracting 100% Inhibition value). IC50 was determined by inflection point from a four parameter logistic curve fit. Ki was calculated using the Cheng Prusoff equation, Ki=IC50/(1+([S]/Km)).

Sequence of purified human Factor XIa (P03951 388-625): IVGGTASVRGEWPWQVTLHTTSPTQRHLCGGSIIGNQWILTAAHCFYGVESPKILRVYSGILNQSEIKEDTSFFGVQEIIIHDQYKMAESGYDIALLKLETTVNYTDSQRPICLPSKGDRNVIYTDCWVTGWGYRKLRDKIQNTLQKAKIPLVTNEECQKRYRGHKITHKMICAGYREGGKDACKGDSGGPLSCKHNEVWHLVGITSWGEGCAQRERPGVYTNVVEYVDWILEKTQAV
Sequence of purified human Factor XIa (P03951 19-387 partner): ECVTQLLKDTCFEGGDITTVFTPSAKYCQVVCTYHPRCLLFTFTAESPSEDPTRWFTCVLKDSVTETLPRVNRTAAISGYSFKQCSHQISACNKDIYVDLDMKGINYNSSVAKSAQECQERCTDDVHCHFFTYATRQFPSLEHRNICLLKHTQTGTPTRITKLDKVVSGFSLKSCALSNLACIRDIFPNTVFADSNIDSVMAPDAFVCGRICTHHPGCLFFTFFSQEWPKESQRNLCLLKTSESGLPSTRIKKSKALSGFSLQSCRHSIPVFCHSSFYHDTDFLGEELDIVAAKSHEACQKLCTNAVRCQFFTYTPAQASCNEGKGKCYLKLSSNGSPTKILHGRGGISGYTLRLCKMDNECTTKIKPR
Sequence of purified Human plasma kallikrein (P03952 391-638): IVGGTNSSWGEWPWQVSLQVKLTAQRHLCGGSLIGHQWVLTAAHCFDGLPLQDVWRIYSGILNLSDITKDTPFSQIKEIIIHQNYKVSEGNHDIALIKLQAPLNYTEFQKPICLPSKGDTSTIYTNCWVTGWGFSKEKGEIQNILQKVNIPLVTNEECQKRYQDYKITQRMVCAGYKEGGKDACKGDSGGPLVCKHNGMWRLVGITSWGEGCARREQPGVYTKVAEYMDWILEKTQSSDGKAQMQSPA
Sequence of purified Human plasma kallikrein (P03952 20-390 partner): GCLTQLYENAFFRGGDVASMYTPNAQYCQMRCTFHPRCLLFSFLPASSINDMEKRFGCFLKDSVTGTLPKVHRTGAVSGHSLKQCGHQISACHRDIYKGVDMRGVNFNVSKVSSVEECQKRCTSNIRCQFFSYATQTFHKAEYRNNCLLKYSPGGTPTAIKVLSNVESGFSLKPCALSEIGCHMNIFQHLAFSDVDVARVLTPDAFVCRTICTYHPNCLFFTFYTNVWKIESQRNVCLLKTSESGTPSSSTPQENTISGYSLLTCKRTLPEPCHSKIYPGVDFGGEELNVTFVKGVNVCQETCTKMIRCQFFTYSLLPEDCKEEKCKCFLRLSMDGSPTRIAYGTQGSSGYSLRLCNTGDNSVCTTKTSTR

SMILES	IC50 [1]	IC50 [2]
O=C(O)c1ccc(NC(=O)[C@@H](Cc2ccccc2)c2ccc(-c3cc(Cl)ccc3-n3cnnn3)c[n+]2[O-])cc1 [Example 1, 4-{[(2S)-2-{5-[5-chloro-2-(1H-tetrazol-1-yl)phenyl]-1-oxidopyridin-2-yl}-3-phenylpropanoyl]amino} benzoic acid]	32.7 nM	83.1 nM
O=C(O)c1ccc(NC(=O)[C@H](Cc2ccccc2)c2ccc(-c3cc(Cl)ccc3-n3cnnn3)c[n+]2[O-])cc1 [Example 2, 4-{[(2R)-2-{5-[5-chloro-2-(1H-tetrazol-1-yl)phenyl]-1-oxidopyridin-2-yl}-3-phenylpropanoyl]amino} benzoic acid]	0.16 nM	1.2 nM
O=C(O)c1ccc(NC(=O)[C@H](Cc2ccccc2)c2ccc(-c3c(F)ccc(Cl)c3F)c[n+]2[O-])cc1 [Example 4, 4-({(2R)-2-[5-(3-chloro-2,6-difluorophenyl)-1-oxidopyridin-2-yl]-3-phenylpropanoyl}amino) benzoic acid]	3.63 nM	18.2 nM
O=C(O)c1ccc(NC(=O)[C@@H](Cc2ccc(F)cc2)c2ccc(-c3cc(Cl)ccc3-n3cnnn3)c[n+]2[O-])cc1 [Example 7, 4-{[(2S)-2-{5-[5-chloro-2-(1H-tetrazol-1-yl)phenyl]-1-oxidopyridin-2-yl}-3-(4-fluorophenyl)propanoyl]amino}benzoic acid]	14.2 nM	67.1 nM
O=C(O)c1ccc(NC(=O)[C@H](Cc2ccc(F)cc2)c2ccc(-c3cc(Cl)ccc3-n3cnnn3)c[n+]2[O-])cc1 [Example 8, 4-{[(2R)-2-{5-[5-chloro-2-(1H-tetrazol-1-yl)phenyl]-1-oxidopyridin-2-yl}-3-(4-fluorophenyl)propanoyl]amino}benzoic acid]	0.26 nM	3.4 nM
O=C(Cc1ccc(-c2c(F)ccc(Cl)c2F)c[n+]1[O-])Nc1ccc(C(=O)O)cc1 [Example 9, 4-({[5-(3-chloro-2,6-difluorophenyl)-1-oxidopyridin-2-yl]acetyl}amino) benzoic acid]	89.2 nM	1570 nM
O=C(Cc1ccc(-c2cc(Cl)ccc2-n2cnnn2)c[n+]1[O-])Nc1ccc(C(=O)O)cc1 [Example 14, 4-[({5-[5-chloro-2-(1H-tetrazol-1-yl)phenyl]-1-oxidopyridin-2-yl}acetyl)amino] benzoic acid]	18.5 nM	1350 nM
Cc1cc(C(Cc2ccccc2)C(=O)Nc2ccc(C(=O)O)cc2)[n+]([O-])cc1-c1c(F)ccc(Cl)c1F (centres unmarked) [Example 25, 2-(1-((4-carboxyphenyl)amino)-1-oxo-3-phenylpropan-2-yl)-5-(3-chloro-2,6-difluorophenyl)-4-methylpyridine 1-oxide]	8.32 nM	42.3 nM
O=C(O)c1ccc(NC(=O)[C@H](CC2CC2)c2ccc(-c3cc(Cl)ccc3-n3cnnn3)c[n+]2[O-])cc1 [Example 27, 4-{[(2R)-2-{5-[5-chloro-2-(1H-tetrazol-1-yl)phenyl]-1-oxidopyridin-2-yl}-3-cyclopropylpropanoyl]amino}benzoic acid]	0.14 nM	23.8 nM
O=C(O)c1ccc(NC(=O)[C@@H](CC2CC2)c2ccc(-c3cc(Cl)ccc3-n3cnnn3)c[n+]2[O-])cc1 [Example 28, 4-{[(2S)-2-{5-[5-chloro-2-(1H-tetrazol-1-yl)phenyl]-1-oxidopyridin-2-yl}-3-cyclopropylpropanoyl]amino}benzoic acid]	37 nM	5820 nM
